Assay results taken from patent US11918550B2, “Sensitization of cancer cells to differentiation therapy with mitochondrial uncoupler niclosamide ethanolamine” (The Board of Trustees of the Leland Stanford Junior …, priority 2020, dated 2024).

Columns and labels:
Type in all cases: cell-based
SK-N-BE(2) = experiment: Cell proliferation and morphology change under RA treatment; conditions: 13-cis-RA
Procedure: (§1) Cell proliferation and clonogenic assay. 2×10^4 cells were seeded in 12 well-plate and allowed to attached overnight. Then the cells were treated with various conditions as indicated for 48 h or 96 h (n=3). After treatment, cells were counted using hemocytometer.

SMS-KCNR = experiment: as above; conditions: 13-cis-RA
Procedure: as §1

NB16 = experiment: as above; conditions: NB16, 13-cis-RA
Procedure: as §1

CHP134 = experiment: as above; conditions: CHP134, 13-cis-RA
Procedure: as §1

NB16 cells = experiment: Expression of RA receptors under RA treatment; conditions: NB16, RA 24 h
Procedure: (§2) Protein extraction and immunoblot. Cells were washed with ice-cold PBS buffer (Invitrogen, 20012050) and lysed with harvest buffer (10 mM Hepes pH 7.9, 50 mM NaCl, 500 mM sucrose, 0.1 mM EDTA and 0.5% Trition X-100) supplemented with 1% Halt inhibitors (Thermo Scientific™, 78443) for 10 minutes. Cell lysate was centrifuged at 3000 rpm for 3 min at 4° C. The supernatant containing cytosolic proteins was transferred to a different tube. The pellet containing nuclear proteins was dissolved with nuclear lysis buffer (10 mM Hepes pH 7.9, 0.5M NaCl, 0.1 mM EDTA, 0.1 mM EGTA and 0.1% NP40) supplemented with 1% Halt inhibitors (Thermo Scientific™, 78443) for 5 minutes at 4° C. Then the solution was sonicated at 4° C. for 6 cycles (1 cycle=30 s sonication and 30 s cooldown with “High” energy intensity) using a Bioruptor® Plus sonication (Diagenode, UCD-300). After sonication, the solution was centrifuged at 15,000 rpm for 10 minutes. The supernatant was kept as nuclear extraction. Protein concentration was determined by BCA assay (Thermo Scientific, 23227). 5 μg nuclear proteins or 7.5 μg cytosolic proteins were boiled in loading buffer with reducing reagents (Invitrogen, NuPAGE™ LDS Sample Buffer (4X), NP0007), then separated with SDS-PAGE (Nupage™ 4-12% Bis-Tris Protein Gels, 1.0 mm, Invitrogen™, NP0322BOX). Protein was transferred onto a nitrocellulose membrane (Thermo Scientific™, 88018). After blocking in 5% non-fat milk for 30 minutes at room temperature (RT), the primary antibody was added for incubation overnight at 4° C. After washing with TBST (CST, #9997, 1:10 diluted by deionized water) for 3 times, HRP-conjugated secondary antibodies were applied. Signals were detected with an ECL kit (Thermo Scientific™, 34577) by using BioRad Universal Hood II.

SK-N-BE2 = experiment: Expression of RA receptors under RA treatment; conditions: SK-N-BE2, RA 24 h
Procedure: as §2

[1] = system: RA-resistant neuroblastoma cells; experiment: Morphological differentiation with 5-AZA and 13-cis-RA; conditions: 5-AZA with 1 μM 13-cis-RA, 3 days and 6 days
SK-N-BE(2) cells [2] = experiment: Global DNA methylation analysis by LC-MS (5mdc/dc); conditions: 1 μM, 5 h, 24 h and 48 h vs DMSO
SK-N-BE(2) cells [3] = experiment: Western blot of RA signaling proteins; conditions: 1 μM 5-AZA with 1 μM RA, 24 hrs
Procedure: as §2

Structure (SMILES)	proliferation arrest (SK-N-BE(2); 48 hrs and 96 hrs)	differentiation morphology (SK-N-BE(2); 96 hrs)	proliferation (SMS-KCNR; 48 hrs and 96 hrs)	neuron differentiation morphology (SMS-KCNR; 96 hrs)	proliferation arrest (NB16; 48 hrs and 96 hrs)	differentiation morphology (NB16; 96 hrs)	proliferation (CHP134; 48 hrs and 96 hrs)	neuron differentiation morphology (CHP134; 96 hrs)	induction of RARα upon RA treatment (vs RA-sensitive cell lines) (NB16 cells)	induction of RARγ upon RA treatment (vs RA-sensitive cell lines) (NB16 cells)	induction of RARα upon RA treatment (vs RA-sensitive cell lines) (SK-N-BE2)	induction of RARγ upon RA treatment (vs RA-sensitive cell lines) (SK-N-BE2)	differentiation with RA (morphological changes) [1]	global DNA methylation (ratio of 5-methyl-deoxycytidine to deoxycytidine) (SK-N-BE(2) cells [2])	RA-induced expression of CRABP2 (SK-N-BE(2) cells [3])	RA-induced expression of RARγ (SK-N-BE(2) cells [3])
CC1=C(/C=C/C(C)=C/C=C/C(C)=C\C(=O)O)C(C)(C)CCC1 [RA, 13-cis-retinoic acid]	did not show	did not show	proliferation arrest	significantly induced	did not show	did not show	proliferation arrest	significantly induced	less induction	less induction	less induction	less induction				
Nc1ncn([C@@H]2O[C@H](CO)[C@@H](O)[C@H]2O)c(=O)n1 [5-Aza, 5-Azacytidine]													induced differentiation	reduced	enhanced	enhanced
